Literature values in patent US8674081B2, “Methods and compositions to elicit multivalent immune responses against dominant and subdominant epitopes, expressed on cancer cells and tumor stroma” (Mankind Corporation, priority 2005, dated 2014).

Key:
human PBMC = details: stated as 'has been shown'
[1] = stated as 'has been shown'
MHC class I = details: stated as 'has been shown'

Sequence	CTL / anti-tumor immune response, in vitro immunization of human PBMC (human PBMC)	CTL / anti-tumor immune response, in vivo immunization in mice [1]	MHC class I binding relative to native epitope (MHC class I)
GLPSIPVHPI (listed as Homo sapiens) [PSMA288-297]	significant CTL responses	significant CTL responses	–
GLPSIPVHPV [PSMA288-297 I297V]	significant CTL responses	significant CTL responses	elevated
SLLQHLIGL [PRAME425-433]	strong anti-tumor immune responses	strong anti-tumor immune responses	–
